Measured values published in US12564193B2, “Isoxazoline-substituted benzamide derivative, and preparation method therefor and use thereof” (SHANDONG UNITED PESTICIDE INDUSTRY CO., LTD., priority 2020, dated 2026).
Where two headings read alike, the source gives them in different places.

What was measured:
Assay type in all cases: in vivo
[1] = tested on: Cnaphalocrocis medinalis; assay: Insecticidal activity, spray on pre-infested radish plants: Cnaphalocrocis medinalis; conditions: 144 h, read-out: fatality rate on Cnaphalocrocis medinalis
Experimental: (§1) For determination of insecticidal activity, the test method was as follows: a test solution with a desired concentration was prepared by dissolving a test compound sample in a suitable solvent (the kind of solvent was such as acetone, methanol, DMSO, etc., and was selected according to its dissolving ability for the sample). The test cell was composed of a small open container with 12-15 day old radish plants inside. The plants were pre-infested by placing 30-40 pests located on one leaf cut from the cultivated plant on one leaf of the test plant (leaf cutting method). As the leaves dehydrated, the pests moved on the test plants. After the pre-infesting, the soil of the test cells was covered with a layer of sand.
(§2) The test method was as follows: the test was repeated for three times, and after spraying the formulated test compound, each test unit was allowed to dry for 1 hour, and then a black mesh cover was placed at the top. The test units were kept in a growth chamber at 25° C. and 70% relative humidity for 6 days. The mortality (fatality rate) of the insects was then visually assessed for each test unit, and the fatality rate was calculated as follows: […]

[2] = tested on: Plutella xylostella; assay: Insecticidal activity, spray on pre-infested radish plants: Plutella xylostella; conditions: for pest or weed control at 0.1 ppm / pest or weed control at 1 ppm / pest or weed control at 10 ppm: Plutella xylostella, 144 h, read-out: fatality rate on Plutella xylostella; for Fatality rate on Plutella xylostella (%): Table 3
Experimental: as §1, §2

[3] = tested on: Tetranychus cinnabarinus; assay: Acaricidal activity, slide immersion of female adult mites: Tetranychus cinnabarinus; conditions: read-out: fatality rate on Tetranychus cinnabarinus
Experimental: The test method was as follows: a test solution with a desired concentration was prepared by dissolving a test compound sample in a suitable solvent (the kind of solvent was such as acetone, methanol, DMSO, etc., and was selected according to its dissolving ability for the sample). A double-sided adhesive tape was cut into 2-3 cm long pieces, the pieces were attached to one end of a microscope slide, paper pieces on the adhesive tape were removed using tweezers, female adult mites which were consistent in size, bright in body color and lively in action were selected using a zero-size brush pen, the backs of the female adult mites were adhered to the double-sided adhesive tape (note: the adhesion should not cover mite feet, mite whiskers and mouthparts), with 4 rows of mites adhered to each piece and 10 heads of the mites adhered to each row.
One end of the glass slide with the mites was immersed into a drug liquid, with slightly shaking for 5 seconds, and then the slide was taken out. The excess drug liquid around the mite body and is surroundings is quickly sucked off using absorbent paper. The slide was placed in the biochemical incubator described above, and the results were checked by using binoculars after 24 hours. The mites were slightly touched by using a brush pen, the mites with immobility in feet were considered to be dead, and the fatality rate was calculated. The fatality rate was calculated as follows: […]

[4] = tested on: Spodoptera litura; assay: Insecticidal activity, spray on pre-infested radish plants: Spodoptera litura; conditions: 144 h, read-out: fatality rate on Spodoptera litura
Experimental: as §1, §2

[5] = tested on: Pieris rapae; assay: Insecticidal activity, spray on pre-infested radish plants: Pieris rapae; conditions: 144 h, read-out: fatality rate on Pieris rapae
Experimental: as §1, §2

[6] = tested on: Chilo suppressalis; assay: Insecticidal activity, spray on pre-infested radish plants: Chilo suppressalis; conditions: for pest or weed control at 0.1 ppm / pest or weed control at 1 ppm / pest or weed control at 10 ppm: Chilo suppressalis, 144 h, read-out: fatality rate on Chilo suppressalis; for Fatality rate on Chilo suppressalis (%): Table 3
Experimental: as §1, §2

[7] = tested on: Frankliniella occidentalis; assay: Insecticidal activity, spray on pre-infested radish plants: Frankliniella occidentalis; conditions: for pest or weed control at 1 ppm / pest or weed control at 10 ppm / pest or weed control at 25 ppm: Frankliniella occidentalis, 144 h, read-out: fatality rate on Frankliniella occidentalis; for Fatality rate on Frankliniella occidentalis (%): Table 3
Experimental: as §1
The test method was as follows: the test was repeated for three times, and after spraying the formulated test compound, each test unit was allowed to dry for 1 hour, and then a black mesh cover was placed at the top. The test units were kept in a growth chamber at 25° C. and 70% relative humidity for 6 days. The mortality (fatality rate) of the insects was then visually assessed for each test unit, and the fatality rate was calculated as follows:
[formula] (1) Test Results for the Control of Frankliniella occidentalis by Exemplary Example Compounds

[8] = tested on: Mythimna separata; assay: Insecticidal activity, spray on pre-infested radish plants: Mythimna separata; conditions: for pest or weed control at 0.1 ppm / pest or weed control at 1 ppm / pest or weed control at 10 ppm: Mythimna separata, 144 h, read-out: fatality rate on Mythimna separata; for Fatality rate on Mythimna separata (%): Table 3
Experimental: as §1, §2

[9] = dose 1 ppm, immersion 5 seconds, checked after 24 hours
[10] = dose 10 ppm, immersion 5 seconds, checked after 24 hours
[11] = dose 25 ppm, immersion 5 seconds, checked after 24 hours

With `Cc1cc(C2=NOC(c3cc(F)c(F)c(F)c3)(C(F)(F)F)C2)ccc1C(=O)NCc1cnc(Cl)cc1C(F)(F)F` (stereo not drawn) [Compound 6] the pest or weed control at 0.1 ppm ([1]; dose 0.1 ppm, spray, 6 days) was over 80%, the pest or weed control at 1 ppm ([1]; dose 1 ppm, spray, 6 days) was over 80% and the pest or weed control at 10 ppm ([1]; dose 10 ppm, spray, 6 days) was over 80%. For the same compound, the pest or weed control at 0.1 ppm ([2]; dose 0.1 ppm, spray, 6 days) was over 80%, the pest or weed control at 1 ppm ([2]; dose 1 ppm, spray, 6 days) was over 80% and the pest or weed control at 10 ppm ([2]; dose 10 ppm, spray, 6 days) was over 80%. For the same compound, the pest or weed control at 1 ppm [3, 9] was over 80%, the pest or weed control at 10 ppm [3, 10] was over 80% and the pest or weed control at 25 ppm [3, 11] was over 80%. For the same compound, the pest or weed control at 0.1 ppm ([4]; dose 0.1 ppm, spray, 6 days) was over 80%, the pest or weed control at 1 ppm ([4]; dose 1 ppm, spray, 6 days) was over 80% and the pest or weed control at 10 ppm ([4]; dose 10 ppm, spray, 6 days) was over 80%. The pest or weed control at 0.1 ppm ([5]; dose 0.1 ppm, spray, 6 days) was over 80%, the pest or weed control at 1 ppm ([5]; dose 1 ppm, spray, 6 days) was over 80% and the pest or weed control at 10 ppm ([5]; dose 10 ppm, spray, 6 days) was over 80%. The pest or weed control at 0.1 ppm ([6]; dose 0.1 ppm, spray, 6 days) was over 80%, the pest or weed control at 1 ppm ([6]; dose 1 ppm, spray, 6 days) was over 80% and the pest or weed control at 10 ppm ([6]; dose 10 ppm, spray, 6 days) was over 80%. It also gave a pest or weed control at 1 ppm ([7]; dose 1 ppm, spray, 6 days) of over 80%, a pest or weed control at 10 ppm ([7]; dose 10 ppm, spray, 6 days) of over 80% and a pest or weed control at 25 ppm ([7]; dose 25 ppm, spray, 6 days) of over 80%. The pest or weed control at 0.1 ppm ([8]; dose 0.1 ppm, spray, 6 days) was over 80%, the pest or weed control at 1 ppm ([8]; dose 1 ppm, spray, 6 days) was over 80% and the pest or weed control at 10 ppm ([8]; dose 10 ppm, spray, 6 days) was over 80%.
`Cc1cc(C2=NOC(c3cc(Cl)c(F)c(Cl)c3)(C(F)(F)F)C2)ccc1C(=O)NCc1cnc(Cl)cc1Cl` (stereo not drawn) [Compound 7] gave a pest or weed control at 0.1 ppm [1] of over 80%, a pest or weed control at 1 ppm [1] of over 80% and a pest or weed control at 10 ppm [1] of over 80%. It also gave a pest or weed control at 0.1 ppm [2] of over 80%, a pest or weed control at 1 ppm [2] of over 80% and a pest or weed control at 10 ppm [2] of over 80%. The pest or weed control at 1 ppm ([3]; 24 h) was over 80%, the pest or weed control at 10 ppm ([3]; 24 h) was over 80% and the pest or weed control at 25 ppm ([3]; 24 h) was over 80%. It also gave a pest or weed control at 0.1 ppm [4] of over 80%, a pest or weed control at 1 ppm [4] of over 80% and a pest or weed control at 10 ppm [4] of over 80%. The pest or weed control at 0.1 ppm [5] was over 80%, the pest or weed control at 1 ppm [5] was over 80% and the pest or weed control at 10 ppm [5] was over 80%. The pest or weed control at 0.1 ppm [6] was over 80%, the pest or weed control at 1 ppm [6] was over 80% and the pest or weed control at 10 ppm [6] was over 80%. The pest or weed control at 1 ppm [7] was over 80%, the pest or weed control at 10 ppm [7] was over 80% and the pest or weed control at 25 ppm [7] was over 80%. For the same compound, the pest or weed control at 0.1 ppm [8] was over 80%, the pest or weed control at 1 ppm [8] was over 80% and the pest or weed control at 10 ppm [8] was over 80%.
`Cc1cc(C2=NOC(c3cc(F)c(F)c(F)c3)(C(F)(F)F)C2)ccc1C(=O)NCc1cnc(Cl)cc1Cl` (stereo not drawn) [Compound 8] gave a pest or weed control at 0.1 ppm ([1]; dose 0.1 ppm, spray, 6 days) of over 80%, a pest or weed control at 1 ppm ([1]; dose 1 ppm, spray, 6 days) of over 80% and a pest or weed control at 10 ppm ([1]; dose 10 ppm, spray, 6 days) of over 80%. The pest or weed control at 0.1 ppm ([2]; dose 0.1 ppm, spray, 6 days) was over 80%, the pest or weed control at 1 ppm ([2]; dose 1 ppm, spray, 6 days) was over 80% and the pest or weed control at 10 ppm ([2]; dose 10 ppm, spray, 6 days) was over 80%. For the same compound, the pest or weed control at 1 ppm [3, 9] was over 80%, the pest or weed control at 10 ppm [3, 10] was over 80% and the pest or weed control at 25 ppm [3, 11] was over 80%. It also gave a pest or weed control at 0.1 ppm ([4]; dose 0.1 ppm, spray, 6 days) of over 80%, a pest or weed control at 1 ppm ([4]; dose 1 ppm, spray, 6 days) of over 80% and a pest or weed control at 10 ppm ([4]; dose 10 ppm, spray, 6 days) of over 80%. It also gave a pest or weed control at 0.1 ppm ([5]; dose 0.1 ppm, spray, 6 days) of over 80%, a pest or weed control at 1 ppm ([5]; dose 1 ppm, spray, 6 days) of over 80% and a pest or weed control at 10 ppm ([5]; dose 10 ppm, spray, 6 days) of over 80%. The pest or weed control at 0.1 ppm ([6]; dose 0.1 ppm, spray, 6 days) was over 80%, the pest or weed control at 1 ppm ([6]; dose 1 ppm, spray, 6 days) was over 80% and the pest or weed control at 10 ppm ([6]; dose 10 ppm, spray, 6 days) was over 80%. The pest or weed control at 1 ppm ([7]; dose 1 ppm, spray, 6 days) was over 80%, the pest or weed control at 10 ppm ([7]; dose 10 ppm, spray, 6 days) was over 80% and the pest or weed control at 25 ppm ([7]; dose 25 ppm, spray, 6 days) was over 80%. It also gave a pest or weed control at 0.1 ppm ([8]; dose 0.1 ppm, spray, 6 days) of over 80%, a pest or weed control at 1 ppm ([8]; dose 1 ppm, spray, 6 days) of over 80% and a pest or weed control at 10 ppm ([8]; dose 10 ppm, spray, 6 days) of over 80%.
Work on `Cc1cc(C2=NOC(c3cc(Cl)c(F)c(Cl)c3)(C(F)(F)F)C2)ccc1C(=O)NCc1ncc(C(F)(F)F)cc1Cl` (stereo not drawn) [Compound 9, N-((3-chloro-5-(trifluoromethyl)pyridin-2-yl)methyl)-4-(5-(3,5-dichloro-4-fluorophenyl)-5-(trifluoromethyl)-4,5-dihydroisoxazol-3-yl)-2-methylbenzamide] yielded a pest or weed control at 0.1 ppm [1] of over 80%, a pest or weed control at 1 ppm [1] of over 80% and a pest or weed control at 10 ppm [1] of over 80%. The “Fatality rate on Plutella xylostella (%)” value ([2]; 0.1 ppm) was 100%, the “Fatality rate on Plutella xylostella (%)” value ([2]; 1 ppm) was 100% and the “Fatality rate on Plutella xylostella (%)” value ([2]; 10 ppm) was 100%. For the same compound, the pest or weed control at 0.1 ppm [2] was over 80%, the pest or weed control at 1 ppm [2] was over 80% and the pest or weed control at 10 ppm [2] was over 80%. The pest or weed control at 1 ppm ([3]; 24 h) was over 80%, the pest or weed control at 10 ppm ([3]; 24 h) was over 80% and the pest or weed control at 25 ppm ([3]; 24 h) was over 80%. For the same compound, the pest or weed control at 0.1 ppm [4] was over 80%, the pest or weed control at 1 ppm [4] was over 80% and the pest or weed control at 10 ppm [4] was over 80%. It also gave a pest or weed control at 0.1 ppm [5] of over 80%, a pest or weed control at 1 ppm [5] of over 80% and a pest or weed control at 10 ppm [5] of over 80%. The “Fatality rate on Chilo suppressalis (%)” value ([6]; 0.1 ppm) was 95%, the “Fatality rate on Chilo suppressalis (%)” value ([6]; 1 ppm) was 100% and the “Fatality rate on Chilo suppressalis (%)” value ([6]; 10 ppm) was 100%. It also gave a pest or weed control at 0.1 ppm [6] of over 80%, a pest or weed control at 1 ppm [6] of over 80% and a pest or weed control at 10 ppm [6] of over 80%. For the same compound, the “Fatality rate on Frankliniella occidentalis (%)” value ([7]; 1 ppm) was 95%, the “Fatality rate on Frankliniella occidentalis (%)” value ([7]; 10 ppm) was 100% and the “Fatality rate on Frankliniella occidentalis (%)” value ([7]; 25 ppm) was 100%. It also gave a pest or weed control at 1 ppm [7] of over 80%, a pest or weed control at 10 ppm [7] of over 80% and a pest or weed control at 25 ppm [7] of over 80%. For the same compound, the “Fatality rate on Mythimna separata (%)” value ([8]; 0.1 ppm) was 100%, the “Fatality rate on Mythimna separata (%)” value ([8]; 1 ppm) was 100% and the “Fatality rate on Mythimna separata (%)” value ([8]; 10 ppm) was 100%. The pest or weed control at 0.1 ppm [8] was over 80%, the pest or weed control at 1 ppm [8] was over 80% and the pest or weed control at 10 ppm [8] was over 80%.
